Row | SMILES | melting point [°C]
1 | CCN(CC)C(=N)NC(=O)c1ccc(C2=N[C@@H]3CCCC[C@@H]3c3cc(OC)c(OC)cc32)cc1 [Compound 1, N′-{-[4-((4aR,10bR)-8,9-Dimethoxy-1,2,3,4,4a,10b-hexahydrophenanthridin-6yl)-phenyl]-methanoyl}-N,N-diethylquanidine] | 132 to 135
2 | COc1cc2c(cc1OC)C1CCCCC1N=C2c1ccc(C(=O)NC(=N)N2CCN(C)CC2)cc1 (stereo not drawn) [Compound 5] | 133
3 | COc1cc2c(cc1OC)C1CCCCC1N=C2c1ccc(C(=O)NC(=N)N2CCCC2)cc1 [Compound 9, 4-((4aR,10bR)-8,9-Dimethoxy-1,2,3,4,4a.10b-hexahydro-phenanthridin-6-yl)-N-(1-imino-1-pyrrolidin-1-yl-methyl)-benzamide] | 126
4 | COc1cc2c(cc1OC)[C@H]1CCCC[C@H]1N=C2c1ccc(C(=O)NC(=N)n2nc(C)cc2C)cc1 [Compound 11, 4((4aR,10bR)-8,9-Dimethoxy-1,2,3,4,4a,10b-hexahydro-phenanthridin-6-yl)-N-[1-(3,5-dimethyl-pyrazol-1-yl)-1-imino-methyl]-benzamide] | 179 to 180
5 | CCN(CC)C(=N)NC(=O)c1cccc(C2=NC3CCCCC3c3cc(OC)c(OC)cc32)c1 [Compound 12, N′-{1[3-((4aR,10bR)-8,9-Dimethoxy-1,2,3,4,a,10b-hexahydrophenanthridin-6-yl)-phenyl]-methanoyl}-N,N-diethylquanidine] | 89 to 91
6 | COc1cc2c(cc1OC)[C@H]1CCCC[C@H]1N=C2c1cccc(C(=O)NC(=N)N2CCOCC2)c1 [Compound 13, 3-((4aR,10bR)-8,9-Dimethoxy-1,2,3,4,4a,10b-hexahydrophenanthridin-6-yl)-N-(1-imino-1-morpholin-4yl-methyl)-benzamide] | 187 to 188
